The text below walks through data of US20100285476A1, “METHODS OF IDENTIFYING HISTONE DEACETYLASE INHIBITORS USEFUL FOR NEUROLOGICAL DISORDERS” (priority 2007, published 2010).

What is called IC50 is the concentration that gives 50% inhibition. The low end stands for greater potency in that assay, the high end for weaker potency in that assay.

One data set has as its system HepG2 cells. Kind of data set: Growth inhibition of HepG2 cells (CellTiter 96 AQueous One Solution). It counts as cell-based, human. The conditions noted are these: for HepG2/HDAC3 (estimated therapeutic index): HepG2 growth IC50 divided by IC50 for HDAC3; for IC50: Homo sapiens, 72 hours; for IC50 / cytotoxicity, result in words: HepG2 cells.
A further data set addresses HDAC1 (Homo sapiens, UniProt Q13547). The experiment in a line: HDAC enzyme inhibition assay, purified HDAC1. It counts as biochemical.
The target in a further data set is HDAC3 (Homo sapiens, UniProt O15379). The experiment in a line: HDAC enzyme inhibition assay, purified HDAC3. It counts as biochemical. The conditions noted are these: for Relative Inhibitory Activity HDAC 1/3: IC50 for HDAC1 divided by IC50 for HDAC3; for Relative Inhibitory Activity HDAC 2/3: IC50 for HDAC2 divided by IC50 for HDAC3; for Relative Inhibitory Activity HDAC 5/3: IC50 for HDAC5 divided by IC50 for HDAC3; for IC50: purified HDAC3.

Another data set deals with frataxin (FXN1) mRNA. Kind of data set: Frataxin mRNA expression in lymphocytes by quantitative RT-PCR. As to conditions: for frataxin mRNA expression, result in words / Fold Increase FXN1 Expr. (10 μM): 10 μM; for frataxin mRNA expression, result in words: human lymphocytes; for Fold Increase FXN1 Expr. (10 μM): human lymphocytes of normal donors, vs vehicle control.
The target of another data set is HDAC2 (Homo sapiens, UniProt Q92769). The experiment in a line: HDAC enzyme inhibition assay, purified HDAC2. It counts as biochemical.
Another data set addresses HDAC5 (Homo sapiens, UniProt Q9UQL6). The experiment in a line: HDAC enzyme inhibition assay, purified HDAC5. It counts as biochemical.
The test system of another data set is HDACs 1-10. The experiment in a line: Panel of individual purified HDAC enzymes (HDACs 1-10). It counts as biochemical, human.

Sequence of HDAC3 (O15379 whole entry): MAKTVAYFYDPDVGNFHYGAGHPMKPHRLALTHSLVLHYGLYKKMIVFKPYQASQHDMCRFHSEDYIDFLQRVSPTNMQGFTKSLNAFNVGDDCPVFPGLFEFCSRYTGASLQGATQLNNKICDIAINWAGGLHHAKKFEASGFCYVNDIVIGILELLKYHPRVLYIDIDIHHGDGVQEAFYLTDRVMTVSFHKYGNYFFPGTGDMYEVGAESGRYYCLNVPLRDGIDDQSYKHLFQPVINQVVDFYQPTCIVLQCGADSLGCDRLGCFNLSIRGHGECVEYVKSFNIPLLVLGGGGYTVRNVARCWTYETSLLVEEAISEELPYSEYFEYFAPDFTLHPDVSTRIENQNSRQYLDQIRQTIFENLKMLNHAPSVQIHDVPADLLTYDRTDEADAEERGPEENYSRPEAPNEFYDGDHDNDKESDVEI
Sequence of HDAC3 (Q9Y618 395-489 partner limits assumed): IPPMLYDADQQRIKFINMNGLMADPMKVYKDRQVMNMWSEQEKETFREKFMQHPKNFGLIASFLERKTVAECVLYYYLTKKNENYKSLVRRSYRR
Sequence of HDAC5 (Q9UQL6 whole entry): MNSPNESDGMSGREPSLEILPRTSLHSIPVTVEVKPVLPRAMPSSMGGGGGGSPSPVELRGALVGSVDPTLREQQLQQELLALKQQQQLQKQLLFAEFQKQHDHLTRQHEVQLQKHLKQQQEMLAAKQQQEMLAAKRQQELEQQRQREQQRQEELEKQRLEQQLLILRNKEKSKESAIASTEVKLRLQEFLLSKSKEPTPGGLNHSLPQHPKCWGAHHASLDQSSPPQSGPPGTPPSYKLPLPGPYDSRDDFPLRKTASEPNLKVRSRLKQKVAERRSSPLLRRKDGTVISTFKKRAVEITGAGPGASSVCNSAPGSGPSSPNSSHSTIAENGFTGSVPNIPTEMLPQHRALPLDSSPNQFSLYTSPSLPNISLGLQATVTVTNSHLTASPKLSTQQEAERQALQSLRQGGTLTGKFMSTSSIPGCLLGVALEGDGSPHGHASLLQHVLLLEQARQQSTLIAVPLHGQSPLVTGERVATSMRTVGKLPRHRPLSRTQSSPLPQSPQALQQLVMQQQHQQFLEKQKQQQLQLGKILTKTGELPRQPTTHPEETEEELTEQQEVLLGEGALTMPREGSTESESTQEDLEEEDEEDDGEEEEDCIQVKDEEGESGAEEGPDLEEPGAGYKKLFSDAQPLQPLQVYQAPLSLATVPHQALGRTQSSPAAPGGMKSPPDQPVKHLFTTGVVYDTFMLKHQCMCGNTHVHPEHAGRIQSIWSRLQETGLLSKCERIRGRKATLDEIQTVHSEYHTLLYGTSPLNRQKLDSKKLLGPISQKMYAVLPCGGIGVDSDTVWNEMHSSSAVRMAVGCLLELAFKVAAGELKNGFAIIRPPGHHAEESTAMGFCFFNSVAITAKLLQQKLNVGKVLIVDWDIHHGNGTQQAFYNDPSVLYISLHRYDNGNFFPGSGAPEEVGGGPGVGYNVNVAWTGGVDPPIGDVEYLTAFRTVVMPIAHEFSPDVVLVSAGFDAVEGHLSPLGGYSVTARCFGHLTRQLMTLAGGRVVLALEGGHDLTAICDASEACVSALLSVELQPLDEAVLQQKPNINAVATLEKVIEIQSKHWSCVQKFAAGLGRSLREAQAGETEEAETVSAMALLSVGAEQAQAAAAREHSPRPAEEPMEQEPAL
Sequence of HDAC2 (Q92769 whole entry): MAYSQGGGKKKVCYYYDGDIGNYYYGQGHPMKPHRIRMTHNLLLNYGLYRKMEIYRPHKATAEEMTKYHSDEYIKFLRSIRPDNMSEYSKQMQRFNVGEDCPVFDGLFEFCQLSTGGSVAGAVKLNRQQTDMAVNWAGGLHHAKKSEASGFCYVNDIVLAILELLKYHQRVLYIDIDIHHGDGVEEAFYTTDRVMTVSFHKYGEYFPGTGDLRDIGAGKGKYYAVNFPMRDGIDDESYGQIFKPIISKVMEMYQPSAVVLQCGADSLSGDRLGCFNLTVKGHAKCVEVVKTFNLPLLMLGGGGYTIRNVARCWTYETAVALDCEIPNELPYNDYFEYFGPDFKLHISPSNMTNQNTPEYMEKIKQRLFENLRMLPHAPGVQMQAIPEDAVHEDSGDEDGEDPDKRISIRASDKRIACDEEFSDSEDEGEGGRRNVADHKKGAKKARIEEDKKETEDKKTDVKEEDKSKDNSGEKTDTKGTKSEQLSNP
Sequence of HDAC1 (Q13547 whole entry): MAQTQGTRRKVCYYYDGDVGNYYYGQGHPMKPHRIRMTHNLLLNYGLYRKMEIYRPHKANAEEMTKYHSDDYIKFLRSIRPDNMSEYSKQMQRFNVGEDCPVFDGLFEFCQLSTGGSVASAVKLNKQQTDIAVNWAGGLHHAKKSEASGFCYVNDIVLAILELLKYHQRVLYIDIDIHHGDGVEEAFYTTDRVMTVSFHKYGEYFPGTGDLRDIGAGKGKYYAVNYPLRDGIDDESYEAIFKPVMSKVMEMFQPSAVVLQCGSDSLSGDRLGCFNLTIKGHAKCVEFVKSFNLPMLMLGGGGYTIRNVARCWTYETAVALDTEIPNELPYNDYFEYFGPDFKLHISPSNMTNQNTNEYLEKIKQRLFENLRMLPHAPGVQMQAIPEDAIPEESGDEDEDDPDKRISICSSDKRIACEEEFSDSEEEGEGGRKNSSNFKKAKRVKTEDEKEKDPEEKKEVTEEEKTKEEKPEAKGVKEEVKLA

With `Cc1ccc(NC(=O)CCCCCC(=O)N2CCN(c3ccccc3)CC2)cc1` [Compound 6], in the data set on HepG2 cells, the “HepG2/HDAC3 (estimated therapeutic index)” value is 12.3 and 112 µM corresponded to half-maximal inhibition (IC50). Moreover, half-maximal inhibition on HDAC1 (IC50) was put at 4.2 µM. On HDAC3, the “HDAC3 inhibition, result in words” value is listed as “did not show strong inhibition of HDAC3”; the “Relative Inhibitory Activity HDAC 1/3” value worked out at 0.45; the “Relative Inhibitory Activity HDAC 2/3” value was 0.65; the “Relative Inhibitory Activity HDAC 5/3” value is 2.0. The compound further gave an IC50 against HDAC3 of 9.1 µM. Further, in the data set with frataxin (FXN1) mRNA, the “frataxin mRNA expression, result in words” value (“frataxin mRNA expression” below) is listed as “not active to increase frataxin expression” and the “Fold Increase FXN1 Expr. (10 μM)” value is “none”. In addition, on HDAC2, it took 5.9 µM to reach half-maximal inhibition (IC50). Also, it took 18.2 µM to reach half-maximal inhibition against HDAC5 (IC50).

For the compound `Cc1ccc(NC(=O)CCCCCC(=O)NO)cc1` [Compound 21], in the data set on HepG2 cells, the “cytotoxicity, result in words” value was “relatively low cytotoxicity”; the “HepG2/HDAC3 (estimated therapeutic index)” value was 31; the IC50 amounted to 10 µM. At HDAC1, this compound returned a concentration for half-maximal inhibition (IC50) of 1.19 µM. Also, on HDAC3, the “HDAC3 inhibition, result in words” value is on record as “strong HDAC3 inhibitory activity”; the “Relative Inhibitory Activity HDAC 1/3” value is on record as 3.7; the “Relative Inhibitory Activity HDAC 2/3” value was 9.1; the “Relative Inhibitory Activity HDAC 5/3” value was found to be 5.1. The IC50 against HDAC3 is 0.32 µM. Moreover, in the data set on frataxin (FXN1) mRNA, the “frataxin mRNA expression” value is on record as “effective to increase frataxin expression” and the “Fold Increase FXN1 Expr. (10 μM)” value is given as 2.0 Fold. The half-inhibitory concentration (IC50) at HDAC2 was 2.92 µM. Moreover, 1.63 µM corresponded to half-maximal inhibition against HDAC5 (IC50).

As for `Nc1ccccc1NC(=O)c1ccc(CNC(=O)OCc2cccnc2)cc1` [MS-275, reference compound], the “cytotoxicity, result in words” value in the data set on HepG2 cells is “may be too cytotoxic for long-term use”. For the same compound, the “frataxin mRNA expression” value with frataxin (FXN1) mRNA is “did appreciably increase frataxin mRNA expression”.

With `Cc1ccc(NC(=O)CCCCCC(=O)Nc2ccccc2N)cc1` [RGFA8, N^1-(2-aminophenyl)-N^7-p-tolylheptanediamide], the “maximum observed increase of frataxin expression” value with frataxin (FXN1) mRNA (1-30 μM, normal lymphocytes, compared to vehicle control (FIG. 1)) is on record as “about 16 fold”. Also, in the data set on frataxin (FXN1) mRNA (normal lymphocytes or patient lymphocytes, all concentrations tested (1-30 μM)), the “frataxin expression, result in words” value is on record as “increased expression of frataxin”.

`CC(/C=C/C(=O)NO)=C\[C@@H](C)C(=O)c1ccc(N(C)C)cc1` [TSA, trichostatin A]: the “inhibition of all HDACs tested, result in words” value in the data set on HDACs 1-10 was “Sub-micromolar inhibition”.
